In a melting point compilation (Tetko et al.; mined from patent text by program, amines drawn as free bases though some values may be those of a salt):

| Compound | melting point [°C] |
| --- | --- |
| COC(=O)c1ccc(-c2ccc(OC)cc2)cc1 | 170 to 173 |
| CN(C)C(=O)C(C)(C)n1cc(Cl)c(-c2ccccc2)n1 | 117 to 119 |
| CC(=O)N(C)Cc1ccc(F)cc1 | 48 to 54 |
| O=C(CC1c2ccccc2Sc2ccccc21)Nc1ccc(C(=O)O)cc1 | 265 to 266 |
| FC(F)(F)c1ccc(-c2nc(-c3ccccn3)cs2)cc1 | 123 to 127 |
| O=C(O)c1ccc(SC(Cn2ccnc2)c2ccccc2O)cc1 (stereo not drawn) | 186 to 190 |
| Cc1c(C(=O)O)ccc(Cl)c1Cl | 174 to 175 |
| O=C(CCCCl)c1cc2c(s1)C(=O)NCCC2 | 163 to 165 |
| COC(=O)c1cc(C(=O)c2c(C)c(OC)c3c(OCC(=O)O)cccn23)ccc1N | 164 |
| C#Cc1cccc(Nc2ncnc3cc(OCCOC)c(OCCOC(C)=O)cc23)c1 | 84 to 87 |
| CN1Cc2cccnc2C(N2CC[N+]([O-])(C(=O)Cc3ccncc3)CC2)c2ccc(Cl)cc21 (stereo not drawn) | 115 to 118 |
| CC(=O)C1CCC2C3CCC4CC(O)C(O)CC4(C)C3C(=O)CC12C (stereo not drawn) | 194 to 198 |
| COCOc1cc(Cl)ccc1-c1cc(-c2cccc(NC(=O)Cn3ccnc3)c2)c(C#N)c(NC(=O)c2ccco2)n1 | 157 to 160 |
| COc1cc(C)c(C(=O)c2c(Cl)cccc2Cl)c(OC)c1OC | 92 |
| O=C(Nc1ccc(S(=O)(=O)Nc2ncccn2)cc1)c1ccccc1SSc1ccccc1C(=O)Nc1ccc(S(=O)(=O)Nc2ncccn2)cc1 | 280 |
| CC(C)(C)C(=O)C=CC1C(C(=O)OC(C#N)c2cccc(Oc3ccccc3)c2)C1(C)C (stereo not drawn) | 89 |

Continued, values first:

| melting point [°C] | Compound |
| --- | --- |
| 152 | O=[N+]([O-])c1cc(C(F)(F)F)ccc1NCCN1CCN(C(c2ccccc2)c2ccccc2)CC1 |
| 180 to 182 | CCN1C(=O)C(C)(C)C(=O)N(C)c2cc(CN(CCn3ccc4oc(C)cc4c3=O)Cc3ccc4c(c3)OCO4)ccc21 |
| 188 to 189 | Clc1ccc2c(c1)[nH]c1cc(Cl)ccc12 |
| 80 to 81 | COc1ccc(CC(=O)c2ccccc2)cc1OC |
| 158 | Cn1nc(Cl)c(C2=NOCCO2)c1S(N)(=O)=O |
| 53 to 54 | COC(=O)Oc1c(OC)c(OC)c(OC(=O)OC)c2ccccc12 |
| 195 to 197 | CC(C)OC(=O)Nc1ccc(NC(=O)CBr)c([N+](=O)[O-])c1 |
| 133 to 135 | COc1ccc(CC(=O)N(Cc2ccc(C)cc2)C2CCN(CC3CCCCC3)CC2)cc1 |
| 185 to 188 | CC(NC(=O)C(NC(=O)c1ccccc1)SC(=O)c1ccccc1)C(=O)N1CCCC1C(=O)O (stereo not drawn) |
| 76 to 77 | O=C1c2ccccc2C2(CCCC2)C(=O)N1CCO |
| 37 to 38 | CCCCCCCCCCCCCCCC(=O)CC(=O)OCC |
| 89 to 90 | Cc1oc(-c2ccccc2)nc1CCc1nc(CCl)cs1 |
| 241 to 243 | CC(=O)Nc1cc(Cn2c(C(=O)c3cc(C)cc(Cl)c3)c(C(C)C)c(=O)[nH]c2=O)ccn1 |
| 156 | Cc1noc(C)c1NC(=O)c1ccc(OC(F)F)c2oc(C3CCOC3)cc12 (stereo not drawn) |
| 151 to 152 | CCOC(=O)c1cn(C)nc1NCc1ccc(-c2ccccc2C#N)cc1 |
| 106 to 107 | OC(CSCc1ccc(Cl)cc1)(Cn1cncn1)c1ccc(Cl)cc1Cl (stereo not drawn) |
| 191 to 193 | N#Cc1ccccc1NC(=O)c1snc(Cl)c1Cl |
| 215 | Cc1nn2c(C(F)(F)F)cc(-c3cccc(C(F)(F)F)c3)nc2c1C#N |
| 134 to 135 | Cc1c(C(=O)N[C@H](C)[C@](O)(Cn2cncn2)c2ccc(F)cc2F)cnn1-c1ccc(OC(F)(F)F)cc1 |
| 175 to 176 | NC(=O)c1cc2c(Oc3ccc(C(F)(F)F)cc3)cnc(Cl)c2s1 |
| 86 to 88 | c1ccc(CSc2nc(SCc3ccccc3)n(-c3ncccn3)n2)cc1 |
| 332 to 334 | CCC(C)(C)C(=O)NNc1cc(NC(=O)CC(C)(C)C)cc(NC(=O)CC(C)(C)C)c1 |
